# ChEMBL document CHEMBL3259797, “Radiosyntheses and in vivo evaluation of carbon-11 PET tracers for PDE10A in the brain of rodent and nonhuman primate” (Bioorg Med Chem, 2014)
# What was measured:
# [1] = system: Cerebellum; experiment: Biodistribution in Sprague-Dawley rat cerebellum at 14.8 to 18.5 MBq, iv measured at 5 mins post-injection by gamma counting analysis; assay type: ADME, organism-based; settings: in vivo
# [2] = system: Plasma; experiment: Drug metabolism in iv dosed cynomolgus monkey plasma assessed as retention time by HPLC analysis; assay type: ADME, organism-based, Macaca fascicularis; settings: in vivo
# [3] = system: Striatum; experiment: Biodistribution in Sprague-Dawley rat striatum at 14.8 to 18.5 MBq, iv measured at 60 mins post-injection by gamma counting analysis; assay type: ADME, organism-based; settings: in vivo, 1 h
# [4] = Drug metabolism in iv dosed cynomolgus monkey plasma assessed as compound remaining measured at 15 mins post-injection by HPLC analysis; assay type: ADME, organism-based, Macaca fascicularis; settings: read-out: Stability
# [5] = system: Nucleic Acid; experiment: Ratio of drug level in striatum to cerebellum in cynomolgus monkey at 260 to 370 MBq, iv measured at 30 mins post-injection by microPET analysis; assay type: ADME, organism-based, Macaca fascicularis; settings: in vivo, 0.5 h
# [6] = system: Nucleic Acid; experiment: Ratio of drug level in striatum to cerebellum in cynomolgus monkey at 260 to 370 MBq, iv measured at 80 mins post-injection by microPET analysis; assay type: ADME, organism-based, Macaca fascicularis; settings: in vivo
# [7] = system: Plasma; experiment: Drug recovery in iv dosed cynomolgus monkey plasma measured at 30 mins post-injection by HPLC analysis; assay type: ADME, organism-based, Macaca fascicularis; settings: in vivo, 0.5 h
# [8] = system: Lung; experiment: Biodistribution in Sprague-Dawley rat lung at 14.8 to 18.5 MBq, iv measured at 60 mins post-injection by gamma counting analysis; assay type: ADME, organism-based; settings: in vivo, 1 h
# [9] = Drug recovery in iv dosed cynomolgus monkey arterial blood assessed as radiometabolite level measured at 60 mins post-injection by HPLC analysis; assay type: ADME, organism-based, Macaca fascicularis; settings: in vivo, 1 h
# [10] = system: Kidney; experiment: Biodistribution in Sprague-Dawley rat kidney at 14.8 to 18.5 MBq, iv measured at 60 mins post-injection by gamma counting analysis; assay type: ADME, organism-based; settings: in vivo, 1 h
# [11] = system: Kidney; experiment: Biodistribution in Sprague-Dawley rat kidney at 14.8 to 18.5 MBq, iv measured at 30 mins post-injection by gamma counting analysis; assay type: ADME, organism-based; settings: in vivo, 0.5 h
# [12] = system: Heart; experiment: Biodistribution in Sprague-Dawley rat heart at 14.8 to 18.5 MBq, iv measured at 30 mins post-injection by gamma counting analysis; assay type: ADME, organism-based; settings: in vivo, 0.5 h
# [13] = Biodistribution in cynomolgus monkey striatum at 260 to 370 MBq, iv measured at 30 mins post-injection by microPET analysis; assay type: ADME, organism-based, Macaca fascicularis; settings: in vivo, 0.5 h
# [14] = system: Brain; experiment: Biodistribution in cynomolgus monkey middle brain at 260 to 370 MBq, iv measured at 20 to 100 mins post-injection by microPET analysis; assay type: ADME, organism-based, Macaca fascicularis; settings: in vivo
# [15] = system: Rattus norvegicus; experiment: Biodistribution in Sprague-Dawley rat fat at 14.8 to 18.5 MBq, iv measured at 30 mins post-injection by gamma counting analysis; assay type: ADME, organism-based, Adipose tissue; settings: in vivo, 0.5 h
# [16] = system: Lung; experiment: Biodistribution in Sprague-Dawley rat lung at 14.8 to 18.5 MBq, iv treated with MP-10 for 5 mins prior to compound administration measured at 30 mins post-injection by gamma counting analysis; assay type: ADME, organism-based; settings: in vivo, 0.5 h
# [17] = Drug recovery in iv dosed cynomolgus monkey arterial blood measured at 60 mins post-injection by HPLC analysis; assay type: ADME, organism-based, Macaca fascicularis; settings: in vivo, 1 h
# [18] = Drug metabolism in iv dosed cynomolgus monkey plasma assessed as compound remaining measured at 2 mins post-injection by HPLC analysis; assay type: ADME, organism-based, Macaca fascicularis; settings: read-out: Stability
# [19] = system: Muscle tissue; experiment: Biodistribution in Sprague-Dawley rat muscle at 14.8 to 18.5 MBq, iv measured at 60 mins post-injection by gamma counting analysis; assay type: ADME, organism-based; settings: in vivo, 1 h
# [20] = system: Plasma; experiment: Drug metabolism in iv dosed cynomolgus monkey plasma assessed as retention time of hydrophilic metabolite by HPLC analysis; assay type: ADME, organism-based, Macaca fascicularis; settings: in vivo
# [21] = system: Plasma; experiment: Metabolic stability in iv dosed cynomolgus monkey plasma supernatant under deproteinated condition assessed as compound remaining measured at 5 to 60 mins by HPLC analysis; assay type: ADME, organism-based, Macaca fascicularis; settings: in vivo
# [22] = system: Rattus norvegicus; experiment: Biodistribution in Sprague-Dawley rat fat at 14.8 to 18.5 MBq, iv measured at 60 mins post-injection by gamma counting analysis; assay type: ADME, organism-based, Adipose tissue; settings: in vivo, 1 h
# [23] = system: Rattus norvegicus; experiment: Biodistribution in Sprague-Dawley rat fat at 14.8 to 18.5 MBq, iv measured at 5 mins post-injection by gamma counting analysis; assay type: ADME, organism-based, Adipose tissue; settings: in vivo
# [24] = system: Cerebellum; experiment: Biodistribution in Sprague-Dawley rat cerebellum at 14.8 to 18.5 MBq, iv measured at 60 mins post-injection by gamma counting analysis; assay type: ADME, organism-based; settings: in vivo, 1 h
# [25] = system: Striatum; experiment: Biodistribution in Sprague-Dawley rat striatum at 14.8 to 18.5 MBq, iv treated with MP-10 for 5 mins prior to compound administration measured at 30 mins post-injection by gamma counting analysis; assay type: ADME, organism-based; settings: in vivo, 0.5 h
# [26] = system: Plasma; experiment: Drug metabolism in iv dosed cynomolgus monkey plasma assessed as compound remaining by HPLC analysis; assay type: ADME, organism-based, Macaca fascicularis; settings: in vivo
# [27] = Drug metabolism in iv dosed cynomolgus monkey plasma assessed as compound remaining measured at 30 mins post-injection by HPLC analysis; assay type: ADME, organism-based, Macaca fascicularis; settings: read-out: Stability
# [28] = Drug metabolism in iv dosed cynomolgus monkey plasma measured at 60 mins post-injection by HPLC analysis; assay type: ADME, organism-based, Macaca fascicularis; settings: read-out: Drug metabolism
# [29] = Drug metabolism in iv dosed cynomolgus monkey plasma assessed as compound remaining measured at 60 mins post-injection by HPLC analysis; assay type: ADME, organism-based, Macaca fascicularis; settings: read-out: Stability
# [30] = system: Nucleic Acid; experiment: Ratio of drug level in striatum to cerebellum in cynomolgus monkey at 260 to 370 MBq, iv measured at 25 mins post-injection by microPET analysis; assay type: ADME, organism-based, Macaca fascicularis; settings: in vivo
# [31] = Biodistribution in cynomolgus monkey striatum at 260 to 370 MBq, iv measured at 25 mins post-injection by microPET analysis; assay type: ADME, organism-based, Macaca fascicularis; settings: in vivo
SMILES,Drug uptake [1] [% ID/g],Retention_time [2] [min],Drug uptake [3] [% ID/g],remaining at 0.25 h [4] [%],Drug uptake [8] [% ID/g],Drug uptake [10] [% ID/g],Drug uptake [11] [% ID/g],Drug uptake [12] [% ID/g],Drug uptake [14],Drug uptake [15] [% ID/g],Drug uptake [16] [% ID/g],Drug uptake [19] [% ID/g],Retention_time [20] [min],Stability [21] [%],Drug uptake [22] [% ID/g],Drug uptake [23] [% ID/g],Drug uptake [24] [% ID/g],Drug uptake [25] [% ID/g],also measured
Cn1cc(-c2ccncc2)c(-c2ccc(OCc3nc4ccccc4cc3O[11CH3])cc2)n1,0.229,8,0.38,87,0.299,1.275,1.647,0.296,Active,0.851,0.404,0.142,3,88,0.5,0.935,0.064,0.294,Ratio [5]: 3.5; Ratio [6]: 4.5; Drug recovery [7]: 82%; Drug recovery [9]: 30%; SUV [13]: 1.8; Drug recovery [17]: 65%; remaining at 2 min [18]: 97%
Cn1cc(-c2ccncc2)c(-c2ccc(OCc3cc(O[11CH3])c4ccccc4n3)cc2)n1,0.215,9,0.201,75,0.163,0.758,1.294,0.187,Active,0.371,0.362,0.084,3,88,0.278,0.242,0.046,0.175,Stability [26]: 85%; remaining at 0.5 h [27]: 60%; metabolised at 1 h [28]: 42%; remaining at 1 h [29]: 42%; Ratio [30]: 2.7; Drug uptake [31]: Active
